Test results reported in publication PMC9026127, “A Leucyl-tRNA Synthetase Urzyme: Authenticity of tRNA Synthetase Catalytic Activities and Promiscuous Phosphorylation of Leucyl-5′AMP” (International Journal of Molecular Sciences, 2022).

What was measured:
Ec LeuRS = target: T1, Ec LeuRS (Escherichia coli, UniProt P07813); settings: leucine activation; 50 mM HEPES pH 7.5, 10 mM MgCl2, 10 μM ATP, 50 mM amino acid, pyrophosphatase
T1 construct: gene leuS

[1] = target: T2, LeuAC (LeuRS urzyme), TEV-cleaved (Pyrococcus horikoshii, UniProt O58698); assay: Sephadex G15 size-exclusion co-elution of [^[…]] leucine label; assay type: binding; settings: labelled compound; formed in situ from [^14C] leucine and ATP, presumed leucyl-5′AMP; 50 mM HEPES pH 7.5, 20 mM MgCl2, 37 °C; only a simulated upper limit for KD
T2 construct: gene leuS; MBP fusion (pMAL-c2x, E. coli), TEV-cleaved but MBP not separated; his-tagged

P. horikoshii LeuRS = target: T3, P. horikoshii LeuRS (Pyrococcus horikoshii, UniProt O58698); assay: nitrocellulose filter binding, [^[…]] leucine; settings: labelled compound; formed in situ from 25 μM [^14C] leucine and 50 μM ATP, presumed leucyl-5′AMP; pH 7.5, 20 mM MgCl2, 37 °C
T3 construct: gene leuS; full length, synthetic gene in pET-11a, E. coli BL21-CodonPlus(DE3)-RIPL, Ni-NTA purified (tag not described), heat step 80 °C
T3 sequence (O58698 1-967): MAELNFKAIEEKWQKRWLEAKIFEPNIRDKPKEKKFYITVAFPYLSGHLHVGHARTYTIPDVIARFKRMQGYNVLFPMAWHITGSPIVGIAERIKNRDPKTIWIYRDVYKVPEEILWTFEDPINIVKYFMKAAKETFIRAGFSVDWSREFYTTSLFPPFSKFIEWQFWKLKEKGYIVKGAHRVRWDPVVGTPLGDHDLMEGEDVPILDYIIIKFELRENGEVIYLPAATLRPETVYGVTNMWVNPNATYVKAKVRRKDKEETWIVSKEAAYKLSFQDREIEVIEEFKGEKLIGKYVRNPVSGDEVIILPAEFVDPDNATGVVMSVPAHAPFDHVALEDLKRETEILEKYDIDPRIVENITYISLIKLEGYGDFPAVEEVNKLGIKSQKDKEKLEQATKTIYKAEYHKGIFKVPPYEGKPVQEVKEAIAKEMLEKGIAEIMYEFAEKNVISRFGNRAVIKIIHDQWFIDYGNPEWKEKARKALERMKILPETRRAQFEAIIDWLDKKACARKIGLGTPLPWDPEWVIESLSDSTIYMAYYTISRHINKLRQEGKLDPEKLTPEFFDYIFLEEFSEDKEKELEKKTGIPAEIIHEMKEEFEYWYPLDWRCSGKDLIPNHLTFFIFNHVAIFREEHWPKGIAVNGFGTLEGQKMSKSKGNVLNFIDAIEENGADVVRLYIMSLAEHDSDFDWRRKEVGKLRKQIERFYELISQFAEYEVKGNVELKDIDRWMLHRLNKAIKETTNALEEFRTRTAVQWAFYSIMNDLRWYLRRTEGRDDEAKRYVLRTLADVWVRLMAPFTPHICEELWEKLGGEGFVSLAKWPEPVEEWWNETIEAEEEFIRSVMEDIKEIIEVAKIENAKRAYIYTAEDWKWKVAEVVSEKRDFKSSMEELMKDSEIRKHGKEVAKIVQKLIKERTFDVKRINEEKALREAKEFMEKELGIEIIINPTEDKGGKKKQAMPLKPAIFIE

purified protein = substrate: CC(C)C[C@H](N)C(=O)O; assay: purified protein; assay type: biochemical, Pyrococcus horikoshii; settings: unit not printed beside the value (M inferred), tRNA^Leu and ATP co-substrates, 50 mM HEPES pH 7.5, 10 mM MgCl2

T1 sequence (P07813 whole entry): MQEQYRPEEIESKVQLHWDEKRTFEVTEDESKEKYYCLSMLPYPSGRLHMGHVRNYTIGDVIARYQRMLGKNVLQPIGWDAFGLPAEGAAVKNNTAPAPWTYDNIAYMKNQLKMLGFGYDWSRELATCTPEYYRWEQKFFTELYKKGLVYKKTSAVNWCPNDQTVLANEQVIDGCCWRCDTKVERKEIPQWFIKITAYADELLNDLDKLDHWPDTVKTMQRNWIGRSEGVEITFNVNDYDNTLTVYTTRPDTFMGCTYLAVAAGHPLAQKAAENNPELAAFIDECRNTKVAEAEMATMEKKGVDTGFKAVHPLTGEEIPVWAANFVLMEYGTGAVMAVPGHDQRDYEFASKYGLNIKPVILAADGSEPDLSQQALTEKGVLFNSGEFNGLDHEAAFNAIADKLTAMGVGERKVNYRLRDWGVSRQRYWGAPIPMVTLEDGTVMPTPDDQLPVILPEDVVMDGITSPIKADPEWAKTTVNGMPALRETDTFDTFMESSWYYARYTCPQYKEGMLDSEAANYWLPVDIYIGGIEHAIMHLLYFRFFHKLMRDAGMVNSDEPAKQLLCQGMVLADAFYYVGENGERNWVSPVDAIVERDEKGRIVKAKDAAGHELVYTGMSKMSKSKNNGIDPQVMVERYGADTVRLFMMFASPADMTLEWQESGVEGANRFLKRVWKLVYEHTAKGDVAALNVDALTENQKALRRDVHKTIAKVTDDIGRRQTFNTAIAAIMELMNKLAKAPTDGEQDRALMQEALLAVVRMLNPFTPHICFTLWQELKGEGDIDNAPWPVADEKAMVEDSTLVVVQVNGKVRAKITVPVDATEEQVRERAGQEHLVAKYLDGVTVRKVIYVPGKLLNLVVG

**Q.** `Nc1ncnc2c1ncn2[C@@H]1O[C@H](COP(=O)(O)OP(=O)(O)OP(=O)(O)O)[C@@H](O)[C@H]1O` [ATP] was tested. Which “single-turnover active-site titration, [^32P] ATP, TLC” value (Ec LeuRS) did it give?
**A.** Full-length LeuRS from both E. coli and P. horikoshii produce minor amounts of ADP

**Q.** For `CC(C)C[C@H](N)C(=O)OP(=O)(O)OC[C@H]1O[C@@H](n2cnc3c(N)ncnc32)[C@H](O)[C@@H]1O` [leucyl-5′AMP], which “Sephadex G15 size-exclusion co-elution of [^14C] leucine label” value [1] is on record?
**A.** lower limit on both the stoichiometry and affinity of the active LeuAC•leucyl-5′ AMP complex

**Q.** And the “moles [^14C] leucine/mole enzyme” value (P. horikoshii LeuRS)?
**A.** 0.48 ± 0.13 mol/mol

B1: P. horikoshii LeuRS (Pyrococcus horikoshii OT3) (protein)
chain: MAELNFKAIEEKWQKRWLEAKIFEPNIRDKPKEKKFYITVAFPYLSGHLHVGHARTYTIPDVIARFKRMQGYNVLFPMAWHITGSPIVGIAERIKNRDPKTIWIYRDVYKVPEEILWTFEDPINIVKYFMKAAKETFIRAGFSVDWSREFYTTSLFPPFSKFIEWQFWKLKEKGYIVKGAHRVRWDPVVGTPLGDHDLMEGEDVPILDYIIIKFELRENGEVIYLPAATLRPETVYGVTNMWVNPNATYVKAKVRRKDKEETWIVSKEAAYKLSFQDREIEVIEEFKGEKLIGKYVRNPVSGDEVIILPAEFVDPDNATGVVMSVPAHAPFDHVALEDLKRETEILEKYDIDPRIVENITYISLIKLEGYGDFPAVEEVNKLGIKSQKDKEKLEQATKTIYKAEYHKGIFKVPPYEGKPVQEVKEAIAKEMLEKGIAEIMYEFAEKNVISRFGNRAVIKIIHDQWFIDYGNPEWKEKARKALERMKILPETRRAQFEAIIDWLDKKACARKIGLGTPLPWDPEWVIESLSDSTIYMAYYTISRHINKLRQEGKLDPEKLTPEFFDYIFLEEFSEDKEKELEKKTGIPAEIIHEMKEEFEYWYPLDWRCSGKDLIPNHLTFFIFNHVAIFREEHWPKGIAVNGFGTLEGQKMSKSKGNVLNFIDAIEENGADVVRLYIMSLAEHDSDFDWRRKEVGKLRKQIERFYELISQFAEYEVKGNVELKDIDRWMLHRLNKAIKETTNALEEFRTRTAVQWAFYSIMNDLRWYLRRTEGRDDEAKRYVLRTLADVWVRLMAPFTPHICEELWEKLGGEGFVSLAKWPEPVEEWWNETIEAEEEFIRSVMEDIKEIIEVAKIENAKRAYIYTAEDWKWKVAEVVSEKRDFKSSMEELMKDSEIRKHGKEVAKIVQKLIKERTFDVKRINEEKALREAKEFMEKELGIEIIINPTEDKGGKKKQAMPLKPAIFIE
notes: full length, synthetic gene in pET-11a, E. coli BL21-CodonPlus(DE3)-RIPL, Ni-NTA purified (tag not described), heat step 80 °C
**Q.** Which Km (purified protein) does the source give for B1 here?
**A.** 5.9 ± 0.8 × 10^−6 M
